pEC50: −log10 of the molar value. Where a SMILES comes first, the peptide text is derived from it. [ ]: non-standard residue; d: D form. Phe(4-I) = N[C@@H](Cc1ccc(I)cc1)C(=O)O; dPhe(4-I) = N[C@H](Cc1ccc(I)cc1)C(=O)O; Tic = O=C(O)[C@@H]1Cc2ccccc2CN1; dTic = O=C(O)[C@H]1Cc2ccccc2CN1
Experiments:
Type in all cases: functional, cell-based
Melanocortin receptor 4 [1] = biological target: Melanocortin receptor 4 (Homo sapiens, UniProt P32245); assay: Agonist activity at wild type human melanocortin-4 receptor expressed in HEK293 cells co-transfected with CRE/beta-galactosidase reporter gene assessed as stimulatory response after 6 hrs
Melanocortin receptor 4 [2] = biological target: Melanocortin receptor 4 (Homo sapiens, UniProt P32245, L106P); assay: Agonist activity at human melanocortin-4 receptor L106P mutant expressed in HEK293 cells co-transfected with CRE/beta-galactosidase reporter gene assessed as stimulatory response after 6 hrs
[3] = biological target: Melanocyte-stimulating hormone receptor (Mus musculus, UniProt Q01727); assay: Agonist activity at mouse melanocortin-1 receptor expressed in HEK293 cells co-transfected with CRE/beta-galactosidase reporter gene assessed as stimulatory response after 6 hrs
Melanocortin receptor 4 [4] = biological target: Melanocortin receptor 4 (Homo sapiens, UniProt P32245, C271Y); assay: Agonist activity at human melanocortin-4 receptor C271Y mutant expressed in HEK293 cells co-transfected with CRE/beta-galactosidase reporter gene assessed as stimulatory response after 6 hrs
Melanocortin receptor 4 (Homo sapiens, UniProt P32245, C271Y), sequence (P32245 whole entry C271Y): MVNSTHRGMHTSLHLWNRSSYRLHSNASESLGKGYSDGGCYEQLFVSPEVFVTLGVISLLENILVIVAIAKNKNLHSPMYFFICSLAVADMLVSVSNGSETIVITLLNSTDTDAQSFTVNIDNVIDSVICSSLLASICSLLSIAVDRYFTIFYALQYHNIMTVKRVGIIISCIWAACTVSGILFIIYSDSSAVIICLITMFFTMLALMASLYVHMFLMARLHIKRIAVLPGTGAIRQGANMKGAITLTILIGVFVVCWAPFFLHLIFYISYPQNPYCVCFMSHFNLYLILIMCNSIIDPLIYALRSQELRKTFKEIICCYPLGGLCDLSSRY

Melanocortin receptor 4 (Homo sapiens, UniProt P32245), sequence (P32245 whole entry): as the sequence (P32245 whole entry C271Y) above, with Y271C counted along it
Melanocortin receptor 4 (Homo sapiens, UniProt P32245, L106P), sequence (P32245 whole entry L106P): as the sequence (P32245 whole entry C271Y) above, with L106P, Y271C counted along it
Melanocyte-stimulating hormone receptor, sequence (Q01727 whole entry): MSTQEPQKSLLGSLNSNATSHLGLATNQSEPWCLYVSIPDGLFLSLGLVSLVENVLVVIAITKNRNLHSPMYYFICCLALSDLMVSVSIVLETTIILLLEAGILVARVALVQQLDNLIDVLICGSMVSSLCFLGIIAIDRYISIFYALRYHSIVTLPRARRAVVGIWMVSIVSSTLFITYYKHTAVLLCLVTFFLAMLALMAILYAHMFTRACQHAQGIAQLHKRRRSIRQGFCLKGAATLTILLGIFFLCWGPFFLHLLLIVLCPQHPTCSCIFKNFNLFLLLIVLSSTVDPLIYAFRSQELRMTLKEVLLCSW

Compound | pEC50 (Melanocortin receptor 4 [1]) | pEC50 (Melanocortin receptor 4 [2]) | other results
CC(=O)N[C@@H](Cc1cnc[nH]1)C(=O)N[C@H](Cc1ccc(I)cc1)C(=O)N1Cc2ccccc2CC1C(=O)N[C@@H](Cc1ccc(I)cc1)C(N)=O (some centres not stated) | 8.13 | 6.24 | 
CC(=O)N1Cc2ccccc2C[C@H]1C(=O)N[C@H](Cc1ccc(I)cc1)C(=O)N[C@@H](CCCNC(=N)N)C(=O)N1Cc2ccccc2C[C@H]1C(N)=O | 6.55 | 5.65 | 
CC(=O)N[C@@H](Cc1cnc[nH]1)C(=O)N[C@H](Cc1ccc(Cl)cc1)C(=O)N[C@@H](CCCNC(=N)N)C(=O)N[C@@H](Cc1ccc(I)cc1)C(N)=O |  |  | pEC50 [3]: 7.72
CC(=O)N[C@@H](Cc1cnc[nH]1)C(=O)N[C@H](Cc1ccccc1)C(=O)N[C@@H](CCCNC(=N)N)C(=O)N[C@@H](Cc1ccc([N+](=O)[O-])cc1)C(N)=O | 6.71 | 4.64 | 
CC(=O)N[C@@H](Cc1cnc[nH]1)C(=O)N[C@H](Cc1ccccc1)C(=O)N[C@@H](CCCNC(=N)N)C(=O)N1Cc2ccccc2CC1C(N)=O (some centres not stated) | < 5.00 | < 4.00 | 
CC(=O)N1Cc2ccccc2C[C@H]1C(=O)N[C@H](Cc1ccc(I)cc1)C(=O)N1Cc2ccccc2C[C@H]1C(=O)N[C@H](Cc1ccc([N+](=O)[O-])cc1)C(N)=O | 8.29 | 6.55 | 
CC(=O)N[C@@H](CCCNC(=N)N)C(=O)N[C@H](Cc1ccc(Cl)cc1)C(=O)N[C@@H](CCCNC(=N)N)C(=O)N1Cc2ccccc2C[C@H]1C(N)=O | 6.96 | 5.57 | 
CC(=O)N[C@@H](CCCNC(=N)N)C(=O)N[C@H](Cc1ccc(I)cc1)C(=O)N1Cc2ccccc2C[C@H]1C(=O)N1Cc2ccccc2C[C@H]1C(N)=O | 5.65 | 4.56 | 
CC(=O)N1Cc2ccccc2C[C@H]1C(=O)N[C@H](Cc1ccc(Cl)cc1)C(=O)N[C@@H](CCCNC(=N)N)C(=O)N[C@H](Cc1ccc([N+](=O)[O-])cc1)C(N)=O | 7.40 | 6.15 | 
CC(=O)N[C@@H](Cc1c[nH]c2ccccc12)C(=O)N[C@H](Cc1ccccc1)C(=O)N[C@@H](CCCN=C(N)N)C(=O)N[C@@H](Cc1c[nH]c2ccccc12)C(N)=O (Ac-W[dF]RW-NH2) | 7.49 | 6.77 | 
CC(=O)N[C@@H](Cc1c[nH]cn1)C(=O)N[C@H](Cc1ccc(I)cc1)C(=O)N1Cc2ccccc2C[C@H]1C(=O)N1Cc2ccccc2C[C@H]1C(N)=O | 7.62 | 5.42 | 
CC(=O)N[C@@H](CCCNC(=N)N)C(=O)N[C@H](Cc1ccc(I)cc1)C(=O)N[C@@H](CCCNC(=N)N)C(=O)N1Cc2ccccc2C[C@H]1C(N)=O | 7.24 | 5.50 | 
CC(=O)N[C@@H](Cc1cnc[nH]1)C(=O)N[C@H](Cc1ccccc1)C(=O)N[C@@H](CCCCN)C(=O)N[C@@H](Cc1c[nH]c2ccccc12)C(N)=O | 7.40 | 5.20 | 
CC(=O)N[C@@H](CCCNC(=N)N)C(=O)N[C@H](Cc1ccc(Cl)cc1)C(=O)N1Cc2ccccc2C[C@H]1C(=O)N1Cc2ccccc2C[C@H]1C(N)=O | 6.60 | 5.61 | 
CC(=O)N[C@@H](Cc1ccc(O)cc1)C(=O)N[C@H](Cc1ccccc1)C(=O)N[C@@H](CCCNC(=N)N)C(=O)N[C@@H](Cc1c[nH]c2ccccc12)C(N)=O (Ac-Y[dF]RW-NH2) | 8.21 | 6.27 | 
CC(=O)N[C@@H](Cc1c[nH]cn1)C(=O)N[C@H](Cc1ccccc1)C(=O)N1Cc2ccccc2C[C@H]1C(=O)N[C@@H](Cc1c[nH]c2ccccc12)C(N)=O |  |  | pEC50 (Melanocortin receptor 4 [1]; hek293): 6.69; pEC50 (Melanocortin receptor 4 [2]; hek293): 4.73
CC(=O)N[C@@H](CCCNC(=N)N)C(=O)N[C@H](Cc1ccc(Cl)cc1)C(=O)N1Cc2ccccc2CC1C(=O)N[C@@H](Cc1ccc(I)cc1)C(N)=O (some centres not stated) | 7.66 | 6.67 | 

Compound | pEC50 (Melanocortin receptor 4 [1]) | pEC50 (Melanocortin receptor 4 [2]) | other results
CC(=O)N[C@@H](Cc1c[nH]cn1)C(=O)N[C@H](Cc1ccc(I)cc1)C(=O)N[C@@H](CCCNC(=N)N)C(=O)N1Cc2ccccc2C[C@H]1C(N)=O (Ac-H[dPhe(4-I)]R[Tic]-NH2) | 7.05 | 5.16 | 
CC(=O)N1Cc2ccccc2C[C@H]1C(=O)N[C@H](Cc1ccccc1)C(=O)N[C@@H](CCCNC(=N)N)C(=O)N[C@@H](Cc1c[nH]c2ccccc12)C(N)=O (Ac-[Tic][dF]RW-NH2) |  |  | pEC50 (Melanocortin receptor 4 [1]; hek293): 7.82; pEC50 (Melanocortin receptor 4 [2]; hek293): 5.31
CC(=O)N[C@@H](Cc1cnc[nH]1)C(=O)N[C@H](Cc1ccc(Cl)cc1)C(=O)N1Cc2ccccc2CC1C(=O)N[C@@H](Cc1ccc(I)cc1)C(N)=O (some centres not stated) | 7.82 | 6.10 | 
CC(=O)N1Cc2ccccc2CC1C(=O)N[C@H](Cc1ccc(Cl)cc1)C(=O)N1Cc2ccccc2CC1C(=O)N[C@@H](Cc1ccc(I)cc1)C(N)=O (some centres not stated) | 6.92 | 5.57 | 
CC(=O)N[C@@H](Cc1cnc[nH]1)C(=O)N[C@H](Cc1ccc(I)cc1)C(=O)N[C@@H](CCCNC(=N)N)C(=O)N[C@@H](Cc1ccc(I)cc1)C(N)=O (Ac-H[dPhe(4-I)]R[Phe(4-I)]-NH2) |  |  | pEC50 (Melanocortin receptor 4 [4]): < 4.00; pEC50 [3]: 7.92
CC(=O)N1Cc2ccccc2C[C@H]1C(=O)N[C@H](Cc1ccc(Cl)cc1)C(=O)N1Cc2ccccc2C[C@H]1C(=O)N[C@H](Cc1ccc([N+](=O)[O-])cc1)C(N)=O | 8.02 | 6.51 | 
CC(=O)N[C@@H](Cc1c[nH]cn1)C(=O)N[C@H](Cc1ccc(Cl)cc1)C(=O)N[C@@H](CCCNC(=N)N)C(=O)N1Cc2ccccc2C[C@H]1C(N)=O | 6.96 | 5.11 | 
CC(=O)N[C@H](CCCNC(=N)N)C(=O)N[C@H](Cc1ccccc1)C(=O)N[C@@H](CCCNC(=N)N)C(=O)N[C@@H](Cc1c[nH]c2ccccc12)C(N)=O | 7.40 | 5.91 | 
CC(=O)N[C@@H](CCCNC(=N)N)C(=O)N[C@H](Cc1ccccc1)C(=O)N[C@@H](CCCNC(=N)N)C(=O)N[C@@H](Cc1c[nH]c2ccccc12)C(N)=O | 8.97 | 6.91 | 
CC(=O)N[C@@H](CCCNC(=N)N)C(=O)N[C@H](Cc1ccc(Cl)cc1)C(=O)N[C@@H](CCCNC(=N)N)C(=O)N[C@@H](Cc1ccc(I)cc1)C(N)=O |  | 7.89 | pEC50 (Melanocortin receptor 4 [4]): < 4.00
CC(=O)N1Cc2ccccc2C[C@H]1C(=O)N[C@H](Cc1ccc(I)cc1)C(=O)N[C@@H](CCCNC(=N)N)C(=O)N[C@H](Cc1ccc([N+](=O)[O-])cc1)C(N)=O | 7.70 | 6.18 | 
CC(=O)N1Cc2ccccc2C[C@@H]1C(=O)N[C@H](Cc1ccccc1)C(=O)N[C@@H](CCCN=C(N)N)C(=O)N[C@@H](Cc1c[nH]c2ccccc12)C(N)=O (Ac-[dTic][dF]RW-NH2) | 6.53 | 4.75 | 
CC(=O)N[C@@H](CCCNC(=N)N)C(=O)N[C@H](Cc1ccc(I)cc1)C(=O)N1Cc2ccccc2CC1C(=O)N[C@@H](Cc1ccc(I)cc1)C(N)=O (some centres not stated) | 6.69 | 5.65 | 
CC(=O)N1Cc2ccccc2C[C@H]1C(=O)N[C@H](Cc1ccc(Cl)cc1)C(=O)N[C@@H](CCCNC(=N)N)C(=O)N1Cc2ccccc2C[C@H]1C(N)=O | 6.02 | 4.81 | 
CC(=O)N[C@@H](Cc1c[nH]cn1)C(=O)N[C@H](Cc1ccc(Cl)cc1)C(=O)N1Cc2ccccc2C[C@H]1C(=O)N1Cc2ccccc2C[C@H]1C(N)=O | 6.80 | 4.94 | 
CC(=O)N1Cc2ccccc2CC1C(=O)N[C@H](Cc1ccc(Cl)cc1)C(=O)N[C@@H](CCCNC(=N)N)C(=O)N[C@@H](Cc1ccc(I)cc1)C(N)=O (some centres not stated) | 8.59 | 6.42 | 
CC(=O)N1Cc2ccccc2CC1C(=O)N[C@H](Cc1ccc(I)cc1)C(=O)N[C@@H](CCCNC(=N)N)C(=O)N[C@@H](Cc1ccc(I)cc1)C(N)=O (some centres not stated) | 8.37 | 6.36 | 

Reference: ChEMBL document CHEMBL3286334, “Identification of tetrapeptides from a mixture based positional scanning library that can restore nM full agonist function of the L106P, I69T, I102S, A219V, C271Y, and C271R human melanocortin-4 polymorphic receptors (hMC4Rs)” (J Med Chem, 2014)
